In paper PMC9511441, “Semisynthetic teicoplanin derivatives with dual antimicrobial activity against SARS-CoV-2 and multiresistant bacteria” (Scientific Reports, 2022):
In brackets after ≈: the same amount, converted by molar mass. Like-named read-outs stand apart in the source and are kept apart here.

How the values were obtained:
HEL cells = test: Cytotoxicity in mock-infected HEL cells (MTS); format: cell-based, human; conditions: mock-infected HEL cells, MTS, mean of 2–3 tests
HCoV-229E = conditions: earlier work; read-out: EC50 against human coronavirus 229E (HCoV-229E); cited from earlier work
S.pyogenes = test: MIC, broth microdilution; format: cell-based; conditions: Streptococcus pyogenes
S. aureus = test: MIC, broth microdilution; format: cell-based; conditions: Staphylococcus aureus
S. haemolyticus = test: MIC, broth microdilution; format: cell-based; conditions: Staphylococcus haemolyticus
E. faecalis = test: MIC, broth microdilution; format: cell-based; conditions: Enterococcus faecalis
[1] = test system: a panel of bacteria including MRSA; design: method as in PMID 32652783; conditions: earlier work; cited from earlier work
VeroE6 cells = test: Cytotoxicity in mock-infected VeroE6 cells (XTT); format: cell-based, African green monkey; conditions: mock-infected Vero E6 cells, three days, XTT
[2] = molecular target: T1, human recombinant cathepsin L (Homo sapiens, UniProt P07711); test: biochemical; format: biochemical; conditions: read-out: Cathepsin L IC50; pH 5.5, Z-Phe-Arg-AMC substrate
T1 construct: made in house; host or cells: Escherichia coli
Method: Cathepsin L inhibition was assessed as reported. Briefly, human recombinant cathepsin L was expressed in Escherichia coli[33]. Enzymatic activity was determined in 100 mM acetate buffer (pH 5.5) containing 0.1% PEG 8000, 5 mM cysteine and 1.5 mM EDTA. The enzyme was first activated in assay buffer for 5 min at 37 °C, after which it was added to the wells of a black microplate containing the Z-Phe-Arg-AMC substrate (Bachem) and compounds. Formation of the fluorescent cleavage product was monitored for 50 min at 37 °C, using a Tecan Infinit M1000 spectrofluorimeter set at 460 nm emission and 380 nm excitation wavelength. All assay mixtures contained 5% (v/v) DMSO and 0.01% Triton X-100 to prevent false-positive inhibition due to formation of compound aggregates. All measurements were performed in triplicate and repeated twice. The relative inhibition was calculated using the equation: Relative inhibition (%) = 100(1 − vi/vo), where vi and vo designate the reaction velocities in the presence and absence of inhibitor, respectively. IC50 values were determined from nine data points at different inhibitor concentrations.

S. epidermidis = test: microbe, parasite or virus in culture; format: cell-based; conditions: Staphylococcus epidermidis
E. faecium = test: microbe, parasite or virus in culture; format: cell-based; conditions: Enterococcus faecium

T1 sequence (P07711 114-333): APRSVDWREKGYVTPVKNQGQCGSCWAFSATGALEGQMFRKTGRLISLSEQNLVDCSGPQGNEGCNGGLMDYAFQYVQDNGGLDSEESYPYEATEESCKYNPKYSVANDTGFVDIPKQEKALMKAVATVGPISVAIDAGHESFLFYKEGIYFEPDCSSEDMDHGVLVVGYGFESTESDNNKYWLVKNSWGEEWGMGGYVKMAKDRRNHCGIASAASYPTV

## CC(=O)N[C@H]1[C@H](O[C@@H]2c3ccc(c(Cl)c3)Oc3cc4cc(c3O)Oc3ccc(cc3Cl)C[C@H]3NC(=O)[C@H](n5cc(COCCOCCCC(F)(F)C(F)(F)C(F)(F)C(F)(F)F)nn5)c5ccc(O)c(c5)Oc5cc(O)cc(c5)[C@H](NC3=O)C(=O)N[C@H]4C(=O)N[C@H]3C(=O)N[C@@H]2C(=O)N[C@H](C(=O)O)c2cc(O)cc(O)c2-c2cc3ccc2O)O[C@H](CO)[C@@H](O)[C@@H]1O [Compound 2]
HEL cells
  CC50: > 100 µM
HCoV-229E
  EC50: > 100 µM
S.pyogenes; read-out: MIC value, S.pyogenes H232
  MIC: 0.0625 µg/mL (≈ 0.0349 µM)
S.pyogenes; read-out: MIC value, S.pyogenes H550
  MIC: 0.0625 µg/mL (≈ 0.0349 µM)
S.pyogenes; read-out: MIC value, S.pyogenes H578
  MIC: 0.0625 µg/mL (≈ 0.0349 µM)
S. aureus; ATCC 29213 / MSSA, read-out: MIC value, S. aureus ATCC29213, MSSA
  MIC: 0.0625 µg/mL (≈ 0.0349 µM)
S. aureus; MRSA / USA300, read-out: MIC value, S. aureus USA300, CA-MRSA
  MIC: 0.25 µg/mL (≈ 0.14 µM)
S. aureus; MRSA, read-out: Average MIC value, S. aureus CA-MRSA, 1 strain
  MIC: 0.25 µg/mL (≈ 0.14 µM)
S. aureus; MRSA, read-out: Average MIC value, S. aureus MRSA, 7 strains
  MIC: 0.285 µg/mL (≈ 0.159 µM)
S. aureus; MRSA, read-out: MIC value, S. aureus 73OL, MRSA
  MIC: 0.25 µg/mL (≈ 0.14 µM)
S. aureus; MRSA, read-out: MIC value, S. aureus 214OL, MRSA
  MIC: 0.25 µg/mL (≈ 0.14 µM)
S. aureus; MRSA, read-out: MIC value, S. aureus 1041OL, MRSA
  MIC: 0.25 µg/mL (≈ 0.14 µM)
S. aureus; MRSA, read-out: MIC value, S. aureus A6918, MRSA
  MIC: 0.5 µg/mL (≈ 0.28 µM)
S. aureus; MRSA, read-out: MIC value, S. aureus A6919, MRSA
  MIC: 0.25 µg/mL (≈ 0.14 µM)
S. aureus; MRSA, read-out: MIC value, S. aureus Mu50, MRSA
  MIC: 0.25 µg/mL (≈ 0.14 µM)
S. aureus; MRSA, read-out: MIC value, S. aureus N315, MRSA
  MIC: 0.25 µg/mL (≈ 0.14 µM)
S. aureus; MSSA / NEWMAN, read-out: MIC value, S. aureus Newman, MSSA
  MIC: 0.5 µg/mL (≈ 0.28 µM)
S. aureus; MSSA, read-out: Average MIC value, S. aureus MSSA, 4 strains
  MIC: 0.265 µg/mL (≈ 0.148 µM)
S. aureus; MSSA, read-out: MIC value, S. aureus MSSA476, MSSA
  MIC: 0.25 µg/mL (≈ 0.14 µM)
S. aureus; MSSA, read-out: MIC value, S. aureus SA564, MSSA
  MIC: 0.25 µg/mL (≈ 0.14 µM)
S. haemolyticus; S. haemolyticus mecA, 6 strains, read-out: Average MIC value
  MIC: 1.9 µg/mL (≈ 1.06 µM)
S. haemolyticus; S.haemolyticus DALB_R1, mecA, read-out: MIC value
  MIC: 4 µg/mL (≈ 2.24 µM)
S. haemolyticus; S.haemolyticus DALB_R2, mecA, read-out: MIC value
  MIC: 2 µg/mL (≈ 1.12 µM)
S. haemolyticus; S.haemolyticus DALB_R3, mecA, read-out: MIC value
  MIC: 2 µg/mL (≈ 1.12 µM)
S. haemolyticus; S.haemolyticus DALB_R4, mecA, read-out: MIC value
  MIC: 2 µg/mL (≈ 1.12 µM)
S. haemolyticus; S.haemolyticus DALB_R5, mecA, read-out: MIC value
  MIC: 0.5 µg/mL (≈ 0.28 µM)
S. haemolyticus; S.haemolyticus ORI_R1, mecA, read-out: MIC value
  MIC: 1 µg/mL (≈ 0.559 µM)
E. faecalis; read-out: Average MIC value, E. faecalis VAN^R,TEI^R/VanA, 1 strain
  MIC: > 8 µg/mL
E. faecalis; read-out: Average MIC value, E. faecalis VAN^S, TEI^S, 2 strains
  MIC: 1 µg/mL (≈ 0.559 µM)
E. faecalis; read-out: MIC value, E.faecalis JH2-2
  MIC: 1 µg/mL (≈ 0.559 µM)
E. faecalis; read-out: MIC value, E.faecalis OG1RF
  MIC: 1 µg/mL (≈ 0.559 µM)
E. faecalis; read-out: MIC value, E.faecalis V583, VAN,TEI/VanA
  MIC: > 8 µg/mL
[1]
  MIC against a panel of bacteria including MRSA: 0.5 to 1 µM
VeroE6 cells
  CC50: > 100 µM
[2]
  IC50: 98 ± 1 µM
S. epidermidis; read-out: Average MIC value, S. epidermidis mecA, 6 strains
  MIC: 0.645 µg/mL (≈ 0.361 µM)
S. epidermidis; read-out: MIC value, S.epidermidis ORI_R1, mecA
  MIC: 0.5 µg/mL (≈ 0.28 µM)
S. epidermidis; read-out: MIC value, S.epidermidis ORI_R2, mecA
  MIC: 0.5 µg/mL (≈ 0.28 µM)
S. epidermidis; read-out: MIC value, S.epidermidis ORI_R3, mecA
  MIC: 0.25 µg/mL (≈ 0.14 µM)
S. epidermidis; read-out: MIC value, S.epidermidis ORI_R4, mecA
  MIC: 0.5 µg/mL (≈ 0.28 µM)
S. epidermidis; read-out: MIC value, S.epidermidis TEI_R1, mecA
  MIC: 0.125 µg/mL (≈ 0.0699 µM)
S. epidermidis; read-out: MIC value, S.epidermidis TEI_R2, mecA
  MIC: 2 µg/mL (≈ 1.12 µM)
E. faecium; read-out: Average MIC value, E. faecium VAN^R,TEI^R/VanA, 8 strains
  MIC: > 8 µg/mL
E. faecium; read-out: Average MIC value, E. faecium VAN^S, TEI^S, 1 strain
  MIC: 1 µg/mL (≈ 0.559 µM)
E. faecium; read-out: MIC value, E.faecium E335, VAN,TEI,LNZ/VanA
  MIC: > 8 µg/mL
E. faecium; read-out: MIC value, E.faecium E355, VAN,TEI,LNZ/VanA
  MIC: > 8 µg/mL
E. faecium; read-out: MIC value, E.faecium E832, VAN,TEI,LNZ/VanA
  MIC: > 8 µg/mL
E. faecium; read-out: MIC value, E.faecium E854, VAN,TEI,LNZ/VanA
  MIC: > 8 µg/mL
E. faecium; read-out: MIC value, E.faecium E859, VAN,TEI,LNZ/VanA
  MIC: > 8 µg/mL
E. faecium; read-out: MIC value, E.faecium E1114, VAN,TEI,LNZ/VanA
  MIC: > 8 µg/mL
E. faecium; read-out: MIC value, E.faecium E1131, VAN,TEI,LNZ/VanA
  MIC: > 8 µg/mL
E. faecium; read-out: MIC value, E.faecium E1132, VAN,TEI,LNZ/VanA
  MIC: > 8 µg/mL
E. faecium; read-out: MIC value, E.faecium TX0016
  MIC: 1 µg/mL (≈ 0.559 µM)
